Measurements: US9855239B2, “Methods for the treatment and prevention of age-related retinal dysfunction” (University of Washington, priority 2008, dated 2018)
Entries after “also recorded” stand apart in the source; their conditions may differ. Blank lines part the entries; values can stand above or below the compound they belong to.

How the values were obtained:
[1] = system: Lrat−/− and Rpe65−/− knockout mice; conditions: cited from earlier work
[2] = system: retina; experiment: Retinal morphology (light and electron microscopy); assay type: in vivo, mouse; conditions: 10 and 14 months of age
Protocol: The thickness of each major layer in the retina was also similar between control and treated groups.
For light microscopy, mouse eyecups were fixed with 2.5% glutaraldehyde and 1.6% paraformaldehyde in 0.08 M 1,4-piperazinediethanesulfonate buffer (PIPES) (pH 7.4) containing 2% sucrose for ˜1 hr at room temperature followed by 23 hr at 4° C. Eyecups then were washed with 0.13 M sodium phosphate buffer (pH 7.3) and dehydrated through a CH3OH series and embedded in JB4 glycol metacrylate. Sections (6 μm) were stained by immersion in 5% Richardson's stain for 1.5-2 min at room temperature and destained in 0.13 M sodium phosphate (pH 7.3) until the retinal layers were visible by light microscopy (about 8-15 min). For transmission electron microscopy, mouse eyecups were analyzed as described previously (Maeda, A., et al. J Blot Chem 280, 18822-18832 (2005); Maeda, T., Lem, J., Palczewski, K. & Haeseleer, F. Investigative ophthalmology & visual science 46, 4320-4327 (2005)).

[3] = system: C57BL/6 female mice; experiment: Recovery of ERG response (dark adaptation) after bleach, long-term treatment; assay type: in vivo, mouse; conditions: 14 months of age, treated (9-cis-R-Ac: N2 and N3) vs C2; 500 cd·m^−2 for 3 min, 60 min dark adaptation
Protocol: Recovery of the ERG response (dark adaptation) following bleach was measured by monitoring the amplitude of a-waves after retinal exposure to intense constant illumination (500 cd·m^−2, ˜90% bleached rhodopsin) for 3 min. […] Retinoid kinetics in the eyes of each group were quantitatively evaluated during 60 min of dark adaptation after 3 min of bleaching at four subsequent time points of dark adaptation (0, 10, 30, and 60 min). […] Neither 9-cis-retinal nor 9-cis-retinyl esters were found in eyes from untreated groups (data not shown).
(§1) Six groups of mice were studied (FIG. 1B).
(§2) Two weeks after the last gavage with either, 9-cis-R-Ac, all-trans-R-Ac or vehicle, groups of 48 hr dark-adapted mice were analyzed for recovery of dark adaptation after light exposure, purified rhodopsin/opsin and retinoids in the eye and retinal morphology (FIG. 1C; Methods). Mice were exposed to light of intensity 500 cd·m^−2 that bleached ˜90% of rhodopsin, anesthetized and monitored by ERG for one hr to evaluate recovery of dark adaptation. Rhodopsin was purified and rhodopsin/opsin ratios was determined. Retinoid analyses were performed on dissected eyes removed at 0, 10, 30, and 60 min after exposure to the same amount of light. Mice used to evaluate retinal morphology were not exposed to photobleaching prior to analysis.
(§3) ERGs of anesthetized mice were recorded as previously reported.

[4] = system: C57BL/6 female mice; experiment: Single flash ERG analyses after long-term treatment; assay type: in vivo, mouse; conditions: 14 months of age, monthly gavage ~80 mg/kg (9-cis-R-Ac: N2 and N3), vs control C2; 80 mg/kg
Excerpt: To evaluate the effects of rod- and cone-mediated light responses after long-term 9-cis-R-Ac treatments, mice were examined by non-invasive ERG methods. The first set of analyses was done at 4 and 10 months of age. Under scotopic conditions, the amplitudes of a-waves decreased with age, especially at high flash intensities (C1 versus C0 group, FIG. 4A, left top panel), whereas the changes in b-waves were less evident (FIG. 4A, right top panel).
The second set of analyses was done at 14 months of age.
as §1, §2, §3

Structure (SMILES): CC1=C(/C=C/C(C)=C\C=C\C(C)=C\C=O)C(C)(C)CCC1 [9-cis-retinal]
retinal morphology and rod function (single cell recordings, ERG) ([1]; mouse, in vivo, po): preserved retinal morphology and recovery of normal rod function

Structure (SMILES): CC1=C(/C=C/C(C)=C/C=C/C(C)=C/C=O)C(C)(C)CCC1 [11-cis-retinal]
vision ([1]; intraperitoneal injection, Rpe65−/− mice): improves vision

retinal abnormalities by light microscopy [2]: no major abnormalities | recovery of ERG a-wave response (dark adaptation) after bleach [3]: no significant difference
Structure (SMILES): CC(=O)OC/C=C(C)/C=C/C=C(C)/C=C/C1=C(C)CCCC1(C)C [all-trans-R-Ac, reference compound]
a- and b-wave amplitudes, scotopic and photopic single flash ERG [4]: no significant difference; also recorded: no effect
